In patent publication US20260226035A1, “THIOCHROMAN DERIVATIVE AND PREPARATION METHOD THEREFOR AND USE THEREOF” (SHANGHAI INSTITUTE OF MATERIA MEDICA, CHINESE ACADEMY OF …, priority 2022, published 2026):
Like-named read-outs stand apart in the source and are kept apart here. Blank lines part the entries; values can stand above or below the molecule they belong to.

Assays:
ERα of uterine tissue = ERα of uterine tissue (Rattus norvegicus, UniProt P06211); settings: in vivo, po
Method: HE experiment: 1) Cut the fixed uterine tissue into […] slices and place the slices in an oven for 1 hour; 2) Dewax the dried paraffin slices with conventional xylene, hydrate with gradient ethanol, and wash with distilled water; 3) Add hematoxylin to stain for 10 min to 30 min, then wash away the hematoxylin stain with running water; 4) Decolorize with 1% hydrochloric acid ethanol until the slices turn red and lighter in color, and then put them in running water to restore them to blue.

[1] = tested on: MCF-7 mouse subcutaneous tumor model; test: Growth inhibition in MCF-7 mouse subcutaneous tumor model; assay type: in vivo, mice; settings: p.o., QD; for mean tumour volume (mm^3), 21 days / TGI(%): 21 days; for TGI(%): LSZ102 15 mg/kg, Example 4 5 mg/kg
Source text: Experimental reagents: fetal bovine serum (SH30070.03) (FBS, Hyclone, Logan, UT, USA); penicillin ([…]) (Sigma, St. Louis, MO, USA); streptomycin (85886) (Sigma, St. Louis, MO, USA); recombinant human insulin (91077C) (Sigma, St. Louis, MO, USA); EMEM medium (30-2003) (ATCC, Rockville, MD, USA); trypsin (15090046) (Gibco, Grand Island, NY, USA); HBSS ([…]), DMSO (D8418), PEG400 (8074851000), PEG300 (8074841000), PBS (806552), Solutol HS-15 (42966) (Sigma, St. Louis, MO, USA); Matrigel Matrix (BD Bioscience, USA); estrogen pellets (0.36 mg estradiol, 60-day release) (SE-121) (Innovative Research of America, Florida, USA); […] StarSignal Western Protein Marker (10-200 kDa) (M227-01) (GenStar, Beijing, China); Ponceau red, Tween 20, acrylamide, sodium dodecyl sulfate, PMSF (Solon, OH, USA); protein blotting membrane regeneration solution (ZN1923, Biolab, Beijing, China); protein lysis buffer (RIPA), 1.5 mol/L Tris HCl (pH 6.8), 1.5 mol/L Tris HCl (pH 8.8) (Beyotime, Shanghai, China); ECL luminescent solution (Thermo Fisher Scientific, Pittsburgh, PA, USA); […] Goat Anti-Rabbit IgG H&L (HRP) (ab6721) purchased from Abcam (Abcam, Cambridge, UK). […] Cell culture conditions: […] When the cells were fused to 90%, the old medium was discarded, and the cells were washed twice with 2 ml PBS. […] When the cells became round, 2 ml complete medium was quickly added to terminate digestion, and the cells were gently blown and collected, and centrifuged at 800 rpm, 4° C. for 5 min. The supernatant was discarded, the cells were resuspended with complete medium, cultured in bottles, and the medium was changed every other day. […] LSZ102 (15 mg/kg) group: […] LSZ-102 is a selective estrogen receptor degrader developed by Novartis in the clinical research stage and is one of the earliest oral SERDs to enter clinical research; […] The tumor inhibition efficacy of the compound was evaluated by tumor growth inhibition rate TGI (%).

MCF-7 Tam1 cells = test: Inhibition of tamoxifen-resistant MCF-7 Tam1 cell proliferation (CTG); assay type: cell-based; settings: Homo sapiens, MCF7:TAM1, 120 h, read-out: IC50 (nM), inhibitory activity on tamoxifen-resistant cells MCF-7 Tam1
MCF-7 cells = test: Inhibition of MCF-7 cell proliferation (CTG/ATP method); assay type: cell-based; settings: for IC50: Homo sapiens, MCF7, 144 h, read-out: IC50 (nM), inhibitory activity on MCF-7 cell proliferation; for anti-tumor activity, times higher than SAR439859 / anti-tumor activity, times higher than fulvestrant: MCF-7 proliferation; for anti-tumor activity, times higher than SAR439859: vs SAR439859; for anti-tumor activity, times higher than fulvestrant: vs fulvestrant
Method: The purpose of this experiment is to determine the in vitro proliferation inhibitory effect of the compounds of the present invention on the commonly used breast cancer estrogen receptor-positive cells, MCF-7 cells, and to evaluate the in vitro activity of the compounds based on IC50. The inhibitory effect of the compounds of the present invention on the proliferation of MCF-7 cells was tested by the ATP method, specifically the CTG method. CellTiter-Glo, referred to as CTG, is a rapid homogenous detection method for determining the number of viable cells in culture by quantifying ATP. ATP is a key indicator of the metabolism of living cells. The homogenous detection makes the cell lysis and the generated luminescent signal proportional to the amount of ATP present, and the amount of ATP is directly proportional to the number of cells in the culture. The specific experimental method is as follows. […] The cells were cultured in a 37° C. incubator under 5% CO2. Cell passaging, recovery and cryopreservation were performed according to conventional methods. […] On the second day, the drug with concentration gradient was added, 10 μL per well. […] The 96-well plate was incubated in 5% CO2 at 37° C. for 6 days. 50 μL of CTG reagent was added to each well of the 96-well plate, and the plate was shaken on a shaker for 5 min, and then left at room temperature and protected from light for 10 min. 60 μL of CTG reagent was transferred to the 384-well Opti-plate. The luminescence signals were read by a multifunctional enzyme marker, and the signal intensity was used to characterize the number of viable cells. The data of each dosing group were normalized to 100% of the mean value of the control group, and the data were processed and analyzed by GraphPad Prism software.

in vivo = settings: female, Sprague-Dawley (SD), rat, po, 10 mg/kg
[2] = Pharmacokinetics in rats, oral; assay type: in vivo, SD rats; settings: rat, 10 mg/kg
Method: The purpose of this experiment is to test the pharmacokinetic properties of the compounds of the present invention in rats.
The solvent is 5% DMSO+5% Solutol+90% (0.5% MC), which is a colorless and clear dosing solution. The dosing method and dosage are: oral, 10 mg/kg. SD rats were randomly divided into groups according to body weight, fasted but not watered for 12-14 hours one day before dosing, and fed 4 hours after dosing. 0.1 mL of blood was collected from each animal through the eye socket each time, anticoagulated with EDTAK2, and the collection time points were: 0, 5, 15, 30 minutes, 1, 2, 4, 6, 8, 24 hours after administration of the test compound. After blood sample collection, it was placed on ice and centrifuged within 30 minutes to separate plasma (centrifugation conditions: 5000 rpm, 10 minutes, 4° C.). It was stored at −80° C. before analysis. The concentration of compounds in rat plasma was determined by LC-MS/MS. The data acquisition and control system software was Analyst 1.5.1 software (Applied Biosystem). The peak integration method of the chromatogram sample was automatic integration; the ratio of the sample peak area to the internal standard peak area was used as an indicator and regressed with the concentration of the sample. Regression method: linear regression, weight coefficient is 1/X^2. Pharmacokinetic parameters were analyzed and processed by WinNonlin Professional v6.3 (Pharsight, USA) using non-compartmental model. Cmax is the maximum measured blood drug concentration, the area under the blood drug concentration-time curve AUC (0→t) was calculated by the trapezoidal method, and Tmax is the time when the blood drug concentration reaches the peak after administration. Experimental data are expressed as “mean±standard deviation” (Mean±SD, n≥3) or “mean” (Mean, n=2).

Sequence of ERα of uterine tissue (P06211 whole entry): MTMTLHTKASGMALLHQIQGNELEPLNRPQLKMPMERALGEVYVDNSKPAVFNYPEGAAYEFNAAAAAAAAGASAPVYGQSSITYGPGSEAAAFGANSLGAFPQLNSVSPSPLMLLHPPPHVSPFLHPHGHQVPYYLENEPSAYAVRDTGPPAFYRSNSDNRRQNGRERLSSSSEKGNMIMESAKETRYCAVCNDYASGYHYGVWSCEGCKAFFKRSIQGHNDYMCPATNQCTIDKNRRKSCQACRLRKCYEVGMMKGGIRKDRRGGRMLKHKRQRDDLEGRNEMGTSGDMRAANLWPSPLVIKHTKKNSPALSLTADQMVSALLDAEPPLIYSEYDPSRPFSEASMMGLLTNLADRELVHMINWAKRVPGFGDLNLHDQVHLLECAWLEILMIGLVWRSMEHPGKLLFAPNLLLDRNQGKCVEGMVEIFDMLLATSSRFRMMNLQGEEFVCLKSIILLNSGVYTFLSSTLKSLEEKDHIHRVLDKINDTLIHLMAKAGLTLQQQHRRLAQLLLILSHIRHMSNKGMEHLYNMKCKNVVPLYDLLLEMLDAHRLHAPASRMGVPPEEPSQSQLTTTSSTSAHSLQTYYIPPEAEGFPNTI

Molecule: 4-hydroxytamoxifen
Mean body weight (ERα of uterine tissue): 43.9 g

Molecule: COc1cc(F)ccc1[C@@H]1CSc2cc(O)ccc2[C@@H]1c1ccc(OCCN2CC(CF)C2)cc1 (relative stereo) [Example 4, Cis-3-(4-fluoro-2-methoxyphenyl)-4-(4-(2-(3-(fluoromethyl)azetidin-1-yl)ethoxy)phenyl)-7-hydroxythiochroman]
mean tumour volume (mm^3), 0 day [1]: 202 mm^3 | mean tumour volume (mm^3), 21 days [1]: 332 mm^3 | TGI(%) [1]: 78% | IC50 (MCF-7 Tam1 cells): 6.84 ± 1.4 nM

IC50 (MCF-7 cells; MCF-7, CTG, 6 days): 1.7 nM
Molecule: COc1cc(F)ccc1C1CSc2cc(B(O)O)ccc2C1c1ccc(OCCN2CC(CF)C2)cc1 (stereo not drawn) [Example 10, Cis-(3-(4-fluoro-2-methoxyphenyl)-4-(4-(2-(3-(fluoromethyl)azetidin-1-yl)ethoxy)phenyl)thiochroman-7-boronic Acid]

Molecule: COc1cc(F)ccc1[C@H]1CSc2cc(O)ccc2[C@H]1c1ccc(OCCN2CC(CF)C2)cc1 [Example 18, (3S,4R)-3-(4-fluoro-2-methoxyphenyl)-4-(4-(2-(3-(fluoromethyl)azetidin-1-yl)ethoxy)phenyl-)7-hydroxythiochroman]
concentration at 4 h (in vivo; brain): 17400 ng/g | Kp at 4 h (in vivo; brain/plasma): 14.1 | concentration at 4 h (in vivo; plasma): 1.23 µg/mL | anti-tumor activity, times higher than SAR439859 (MCF-7 cells): 15.6 times | anti-tumor activity, times higher than fulvestrant (MCF-7 cells): 7.6 times | Tmax ([2]; Sprague-Dawley (SD), plasma): 3 h | half-life ([2]; Sprague-Dawley (SD), plasma): 8.92 h | MRTPO [2]: 13.4 h | AUC0-t ([2]; plasma): 1.365 µg·h/mL | Cmax ([2]; plasma): 0.198 µg/mL | IC50 (MCF-7 Tam1 cells): 5.37 ± 0.42 nM

Molecule: Oc1ccc2c(c1)SC[C@H](c1cc(F)c(F)cc1F)[C@@H]2c1ccc(OCCN2CC(CF)C2)cc1 [Example 19, (3S,4R)-4-(4-(2-(3-(fluoromethyl)azetidin-1-yl)ethoxy)phenyl)-3-(2,4,5-trifluorophenyl)-7-hydroxythiochroman]
anti-tumor activity, times higher than SAR439859 (MCF-7 cells): 15.6 times | anti-tumor activity, times higher than fulvestrant (MCF-7 cells): 7.6 times

Molecule: C[C@]12CC[C@@H]3c4ccc(O)cc4C[C@@H](CCCCCCCCC[S+]([O-])CCCC(F)(F)C(F)(F)F)[C@H]3[C@@H]1CC[C@@H]2O (stereo partly drawn) [Fulvestrant, reference compound]
IC50 (MCF-7 cells): 1.9 nM

Molecule: CC(F)(F)c1cc(F)ccc1-c1sc2cc(O)ccc2c1Oc1ccc(/C=C/C(=O)O)cc1 [LSZ102, reference compound]
mean tumour volume (mm^3), 0 day [1]: 200 mm^3 | mean tumour volume (mm^3), 21 days [1]: 345 mm^3 | TGI(%) [1]: 75%

IC50 (MCF-7 cells): 3.9 nM
Molecule: O=C(O)c1ccc2c(c1)CCCC(c1ccc(Cl)cc1Cl)=C2c1ccc(O[C@H]2CCN(CCCF)C2)cc1 [SAR439859, reference compound]
